Legend:
[1] = target: Delta-type opioid receptor (Homo sapiens, UniProt P41143); experiment: Displacement of [3H]DPDPE from delta opioid receptor (unknown origin) expressed in CHO cells after 90 mins by liquid scintillation counting; type: cell-based
Mu-type opioid receptor = Mu-type opioid receptor (Homo sapiens, UniProt P35372); experiment: Displacement of [3H]DAMGO from mu opioid receptor (unknown origin) expressed in CHO cells after 90 mins by liquid scintillation counting; type: cell-based
Sequence of Mu-type opioid receptor (P35372 whole entry): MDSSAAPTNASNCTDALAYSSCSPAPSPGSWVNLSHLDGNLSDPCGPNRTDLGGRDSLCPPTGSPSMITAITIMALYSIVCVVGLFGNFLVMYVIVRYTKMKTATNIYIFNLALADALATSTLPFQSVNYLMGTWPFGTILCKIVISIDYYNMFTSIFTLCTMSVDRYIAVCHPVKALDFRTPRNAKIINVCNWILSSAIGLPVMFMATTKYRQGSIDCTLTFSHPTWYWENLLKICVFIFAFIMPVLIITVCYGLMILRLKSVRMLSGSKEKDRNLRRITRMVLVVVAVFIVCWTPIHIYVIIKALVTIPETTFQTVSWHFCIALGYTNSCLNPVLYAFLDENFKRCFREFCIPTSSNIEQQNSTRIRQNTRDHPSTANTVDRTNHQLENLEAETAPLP

Sequence of Delta-type opioid receptor (P41143 whole entry): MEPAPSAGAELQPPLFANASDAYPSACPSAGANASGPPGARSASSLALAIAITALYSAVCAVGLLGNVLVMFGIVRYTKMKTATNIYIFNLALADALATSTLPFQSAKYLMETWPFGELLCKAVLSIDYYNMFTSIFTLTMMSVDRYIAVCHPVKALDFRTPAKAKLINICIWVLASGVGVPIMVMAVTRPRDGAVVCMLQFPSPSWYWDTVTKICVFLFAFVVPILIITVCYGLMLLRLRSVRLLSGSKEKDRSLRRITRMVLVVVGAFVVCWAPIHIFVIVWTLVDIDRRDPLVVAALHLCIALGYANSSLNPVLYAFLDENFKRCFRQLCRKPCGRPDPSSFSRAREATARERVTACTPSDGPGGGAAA

| Structure (SMILES) | Ki [1] [nM] | Ki (Mu-type opioid receptor) [nM] |
| --- | --- | --- |
| NC(=O)[C@@H]1Cc2ccccc2CN(C(=O)C[C@H](Cc2ccccc2)NC(=O)[C@@H]2CCCN2C(=O)[C@@H](N)Cc2ccc(O)cc2)C1 | 695 | 21 |
| NC(=O)[C@H]1Cc2ccccc2CN(C(=O)C[C@H](Cc2ccccc2)NC(=O)[C@@H]2CCCN2C(=O)[C@@H](N)Cc2ccc(O)cc2)C1 | 187 | 14 |
| NC(=O)[C@@H](CNC(=O)C[C@H](Cc1ccccc1)NC(=O)[C@@H]1CCCN1C(=O)[C@@H](N)Cc1ccc(O)cc1)Cc1ccccc1 | 1350 | 5.5 |
| NC(=O)[C@H](CNC(=O)C[C@H](Cc1ccccc1)NC(=O)[C@@H]1CCCN1C(=O)[C@@H](N)Cc1ccc(O)cc1)Cc1ccccc1 | 463 | 3.3 |
| NC(=O)C[C@@H]1Cc2ccccc2CN1C(=O)C[C@H](Cc1ccccc1)NC(=O)[C@@H]1CCCN1C(=O)[C@@H](N)Cc1ccc(O)cc1 | 1650 | 20 |
| NC(=O)C[C@H](Cc1ccccc1)NC(=O)C[C@H](Cc1ccccc1)NC(=O)[C@@H]1CCCN1C(=O)[C@@H](N)Cc1ccc(O)cc1 | 2800 | 19 |
| NC(=O)[C@H](CNC(=O)[C@H](CNC(=O)[C@@H]1CCCN1C(=O)[C@@H](N)Cc1ccc(O)cc1)Cc1ccccc1)Cc1ccccc1 | 922 | 101 |
